From ChEMBL document CHEMBL5728039, “Inhibitors of Bruton's tyrosine kinase and method of their use” (2020)

target: Tyrosine-protein kinase BTK (Homo sapiens, UniProt Q06187); experiment: TBD: TBD
Sequence (Q06187 whole entry): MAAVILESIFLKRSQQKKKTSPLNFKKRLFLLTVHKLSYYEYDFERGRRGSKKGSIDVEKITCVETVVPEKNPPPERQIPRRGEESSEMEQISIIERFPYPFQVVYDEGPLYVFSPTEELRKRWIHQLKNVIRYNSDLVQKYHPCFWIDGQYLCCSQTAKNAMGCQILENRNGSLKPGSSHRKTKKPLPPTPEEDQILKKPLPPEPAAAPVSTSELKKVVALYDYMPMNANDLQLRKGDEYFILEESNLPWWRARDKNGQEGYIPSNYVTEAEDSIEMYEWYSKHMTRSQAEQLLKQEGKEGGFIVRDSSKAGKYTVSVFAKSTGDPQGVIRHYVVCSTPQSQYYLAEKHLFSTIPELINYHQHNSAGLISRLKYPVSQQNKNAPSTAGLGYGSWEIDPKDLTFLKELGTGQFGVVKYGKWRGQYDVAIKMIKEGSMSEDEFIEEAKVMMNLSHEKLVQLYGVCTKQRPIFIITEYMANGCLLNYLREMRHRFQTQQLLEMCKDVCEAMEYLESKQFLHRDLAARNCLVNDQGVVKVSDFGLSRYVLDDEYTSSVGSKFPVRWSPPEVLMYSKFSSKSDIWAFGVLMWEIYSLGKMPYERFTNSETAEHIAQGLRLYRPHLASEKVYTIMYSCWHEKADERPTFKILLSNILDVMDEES

Compared with `CN1CC(NC(=O)c2sc3nccc4c3c2NC(=O)N4c2ccc(Oc3ccccc3)cc2)CC1=O` (stereo not drawn), `Cc1cc(Oc2ccccc2)ccc1N1C(=O)Nc2c(C(=O)N[C@@H]3CCCOC3)sc3nccc1c23` is 16-fold lower in IC50: 0.398 µM for the first, 0.0251 µM for the second. The second is the more potent here.

Work on `C=CC(=O)N1CCC[C@@H](NC(=O)c2sc3nccc4c3c2NC(=O)N4c2ccc(Oc3cccnn3)cc2)C1` yielded an IC50 of over 1 µM.
